From patent US20120041065A1, “LAURIC ACID DISTILLATE FOR ANIMAL FEED” (CAN TECHNOLOGIES, INC., priority 2010, published 2012)

Columns and labels:
[1] = system: male broiler chickens (Ross 708); settings: in vivo
grow-finish pigs = test: Fifth study: growth performance of grow-finish pigs fed HLAD, LA or BMD; settings: P<0.05
[2] = system: male broiler chickens (Ross 708); test: First study: growth performance and carcass evaluation in broilers fed HPKFAD or LA
[3] = system: pigs (initial BW of 9.98 lbs); test: Fourth study: nursery pig challenge model (dirty room) with LAD, Mecadox, calsporin; format: in vivo; settings: severely challenged pigs; d 0 to 40
Description: A total of 96 pigs (initial BW of 9.98 lbs) were allotted to one of 8 treatments (12 replicates per treatment with 1 pigs per replicate). The treatments were 1) a negative control (NC) diet with no antibiotic (Ab), 2) a control diet with an Ab (Mecadox), 3) a diet with LAD at 0.25%, 4) a diet with LAD at 0.5%, 5) a diet with LAD at 1%, 6) a diet with calsporin, 7) a diet with calsporin and LAD at 1%, 8) and a diet with calsporin and LAD at 0.5%. Feed intakes and body weights were determined at the end of each feeding phase. […] Also, ZnO and CuSO4 were not added into the diet to enhance the challenge. The feeding phases were from d 0 to […], d 11 to 20, d 20 to 40. The data, especially from Phase 1 and 2, illustrated the pigs were severely challenged in this trial, which enhanced the effect of the antibiotic. […] The optimum level of LAD was 0.25% for the early growth period and increased to 0.50% for the later growth period. Accordingly, the recommended level of HLAD to be fed to nursery pigs is between 0.25% and 0.5%.

[4] = system: broilers challenged with coccidian vaccine and Clostridium Perfringens; format: in vivo; settings: versus negative control; throughout the study
[5] = system: broilers challenged with coccidia and Clostridia perfringens; format: in vivo
[6] = system: broilers challenged with coccidian vaccine and Clostridium Perfringens; format: in vivo; settings: diets that contained papain relative to any other diet; P<0.05

With `CCCCCCCCCCCC(=O)O` [LA, lauric acid] the “Removed Animals (Adverse Event), overall proportion of animals removed” value [1] was “no differences”, the “ADFI, Phase 3” value (grow-finish pigs; LA at 0.1% relative to control diet or HLAD at 0.4%) was “decreased” and the “overall ADFI” value ([2]; LA 0.1% versus negative control, P=0.166) was “numerically lower but not statistically significant”. For the same molecule, the “overall ADG” value ([2]; LA included at 0.2 and 0.4%, P 0.038) was “decline in overall ADG”, the “breast and leg yield” value ([2]; LA treatments) was “did not so such an increase” and the “overall feed efficiency, dose response” value ([2]; across inclusion levels, P<0.001) was “significant linear and plateau responses”. For the same molecule, the “overall ADFI” value ([2]; all non-zero LA treatments except 0.1% versus negative control) was “decrease”, the “overall ADFI” value ([2]; all non-zero treatments versus negative control, P 0.045) was “decrease” and the overall feed efficiency ([2]; included at 0.4 and 0.8% compared to negative control, P>0.016 as printed) was “improved”. The “Average Hot Carcass Weight” value ([2]; non-zero treatments versus control, P≧0.111) was “no differences”, the “Average Breast Weight” value ([2]; non-zero treatments versus control, P≧0.236) was “no treatment differences” and the “Average Leg Weight” value ([2]; non-zero treatments versus control, P≧0.267) was “no treatment differences”. For the same molecule, the “Percent Leg Yield” value ([2]; other HPKFAD and LA treatment comparisons, P≧0.195) was “No other treatment differences” and the “Percent Breast Yield” value ([2]; other HPKFAD and LA treatment comparisons, P≧0.404) was “No other treatment differences”.

With `COC(=O)N/N=C/c1c[n+]([O-])c2ccccc2[n+]1[O-]` [Mecadox] the “performance (feed intakes and body weights)” value [3] was “improved performance”.

With bacitracin methylene disalicylate [BMD] the performance [4] was “tended to have improved performance”, the performance ([5]; BMD) was “only tended to improve performance” and the “feed intake, day 7” value ([5]; BMD relative to any other dietary treatment, P<0.05) was “higher”. For the same molecule, the “Feed efficiency, Phase 2” value (grow-finish pigs; antibiotic relative to LA at 0.1% or HLAD at 0.4%) was “increased”.

B1: papain: protease fed alone and in combination with hydrolyzed lauric acid (protein, UniProt P00784 134-345, looked up)
Papain: IPEYVDWRQKGAVTPVKNQGSCGSCWAFSAVVTIEGIIKIRTGNLNEYSEQELLDCDRRSYGCNGGYPWSALQLVAQYGIHYRNTYPYEGVQRYCRSREKGPYAAKTDGVRQVQPYNEGALLYSIANQPVSVVLEAAGKDFQLYRGGIFVGPCGNKVDHAVAAVGYGPNYILIKNSWGTGWGENGYIRIKRGTGNSYGVCGLYTSSFYPVKN
In the case of B1, the ADG [6] is reported as “decreased” and the Feed intake [6] is reported as “decreased”.
